Test results published in patent publication US20250026722A1, “SUBSTITUTED QUINOLINES AS IMPROVED NF-KB-INDUCING KINASE (NIK) INHIBITORS” (YUKIN THERAPEUTICS, priority 2021, published 2025).

Tests used:
A375 cells [1] = assay: Proliferation assay in A375 cells (confocal imaging after seven days with compound); format: cell-based; conditions: Homo sapiens, A-375, 168 h, seven days in the presence of compounds
Description: (§1) A375 (American Type Culture Collection; CRL-1619) cells were seeded into 96 well plates (1,200 cells/well; Perkin Elmer; 6005225) and incubated overnight at 37° C., 5% CO2. Compounds prepared in media (Dulbecco's modified Eagle medium+10% foetal bovine serum+1% penicillin/streptomycin) were added to the cells and incubated for four days at 37° C., 5% CO2. Media was then aspirated from the cells and freshly prepared compounds were added to the cells, which were then incubated for a further three days at 37° C., 5% CO2. After a total of seven days in the presence of compounds, media was removed, and the cells were labelled with Hoechst (1 in 1,000; Thermo Fisher; 62249), TOTO™-3 (1 in 10,000; Thermo Fisher; T3604) and SPiDER βGAL (1.0 μM; Sigma-Aldrich; 94433) prepared in Hanks' Balanced Salt Solution supplemented with 1.0 mM HEPES buffer for 20 minutes at 37° C. Cells were imaged by confocal microscopy using an ImageXpress (Molecular Devices) at ×10 magnification. Images were analysed using MetaXpress software (Molecular Devices).

A375 cells [2] = assay: Senescence assay in A375 cells (SPiDER βGAL labelling, confocal imaging after seven days with compound); format: cell-based; conditions: Homo sapiens, A-375, 168 h, seven days in the presence of compounds
Description: as §1

NIK [3] = biological target: T1, NIK (Homo sapiens, UniProt Q99558); assay: NIK degradation Western-blot experiments in A375 cells; format: cell-based; conditions: 10 μM for 72 hrs, 5 μM MG132 during last 4 hours
T1 construct: endogenous in cells; host or cells: A375 cells
T1 sequence (Q99558 whole entry): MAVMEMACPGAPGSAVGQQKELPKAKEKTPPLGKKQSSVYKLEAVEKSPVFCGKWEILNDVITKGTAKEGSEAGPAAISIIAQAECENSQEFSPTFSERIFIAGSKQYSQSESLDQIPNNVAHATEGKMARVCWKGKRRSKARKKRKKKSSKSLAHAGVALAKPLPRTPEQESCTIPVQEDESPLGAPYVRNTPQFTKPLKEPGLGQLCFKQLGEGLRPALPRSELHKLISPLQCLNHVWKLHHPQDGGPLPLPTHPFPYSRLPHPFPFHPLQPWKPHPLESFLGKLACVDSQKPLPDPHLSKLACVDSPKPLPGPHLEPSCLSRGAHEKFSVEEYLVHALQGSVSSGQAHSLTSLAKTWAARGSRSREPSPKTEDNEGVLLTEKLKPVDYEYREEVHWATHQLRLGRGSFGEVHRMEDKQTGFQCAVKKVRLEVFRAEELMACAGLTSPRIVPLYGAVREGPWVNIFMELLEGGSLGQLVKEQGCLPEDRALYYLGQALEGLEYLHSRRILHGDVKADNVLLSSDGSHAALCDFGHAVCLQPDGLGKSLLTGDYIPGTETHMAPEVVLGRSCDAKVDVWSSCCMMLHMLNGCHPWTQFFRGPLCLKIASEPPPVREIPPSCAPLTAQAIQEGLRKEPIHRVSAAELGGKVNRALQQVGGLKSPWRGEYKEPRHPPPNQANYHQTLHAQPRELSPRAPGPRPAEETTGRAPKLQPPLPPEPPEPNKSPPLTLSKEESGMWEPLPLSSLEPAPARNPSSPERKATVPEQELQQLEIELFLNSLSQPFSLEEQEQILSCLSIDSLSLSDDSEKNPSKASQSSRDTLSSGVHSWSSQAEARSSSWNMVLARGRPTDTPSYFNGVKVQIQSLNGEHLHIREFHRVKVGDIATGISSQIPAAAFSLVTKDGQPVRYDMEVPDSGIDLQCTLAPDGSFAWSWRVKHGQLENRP
Description: A375 cells were plated in 6-well dishes at 2,000 cells/cm^2. The day after, cells were treated for 72 hrs with compounds of the examples at 10 μM. Cells were treated during the last 4 hours of the treatment period with 5 μM MG132 to inhibit proteasomal degradation. For protein isolation, cells were washed twice with PBS and then lysed using RIPA Buffer (1×) containing protease and phosphatase inhibitors. Following sonication, the lysate was centrifuged at 20,000 g for 10 min at 4° C. and the supernatants were collected and assayed for protein concentration using the BCA kit (Pierce).
Total protein (20 μg) was separated by electrophoresis on 10% SDS-polyacrylamide gels and transferred to PVDF membranes (Millipore). Blocking was performed in Tris-buffer saline containing 3% BSA. Membranes were incubated with the appropriate primary antibodies overnight at 4° C. (NIK, CST #4994, 1/2000) and β-actin (Santa-Cruz, sc-47778, 1/5000). After washing three times, membranes were incubated with horseradish peroxidase-conjugated secondary antibodies for 1 h. Bound antibodies were detected using an enhanced chemiluminescence plus kit (GE Healthcare). NIK degradation was tested and confirmed for the compounds of Examples 3, 4, 5, 6, 10 and 11 (see the corresponding table below). For illustration, the Western blot analysis of NIK degradation in cells treated with the compound of Example 3 (at 10 μM for 72 h) is shown in FIG. 1.

NIK [4] = biological target: T1, NIK; conditions: pan kinase inhibitor, literature; cited from earlier work

| SMILES | IC50 (A375 cells [1]) [nM] | EC50 (A375 cells [2]) [nM] | NIK degradation activity (NIK [3]) | inhibition of the kinase activity (NIK) (NIK [4]) |
| --- | --- | --- | --- | --- |
| COCCOc1ccc(Nc2ccnc3cc(Cl)ccc23)cc1 [Reference compound (*), 7-chloro-N-(4-(2-methoxyethoxy)phenyl)quinolin-4-amine] | 1690 | 2490 |  |  |
| COc1ccc(Nc2ccnc3cc(Cl)ccc23)cc1O [Reference compound (**), 7-chloro-N-(3-(hydroxy)-4-(methoxy)phenyl)quinolin-4-amine] | > 10000 | > 10000 |  |  |
| COCCOc1ccc(Nc2ccnc3cc(C(F)F)ccc23)c(OC)c1 [Example 9, 7-(difluoromethyl)-N-(2-methoxy-4-(2-methoxyethoxy)phenyl)quinolin-4-amine] | 205 | 200 |  |  |
| COCCOc1ccc(Nc2ccnc3cc(N4CCN(C)CC4)ccc23)c(OC)c1 [Example 6, N-(2-methoxy-4-(2-methoxyethoxy)phenyl)-7-(4-methylpiperazin-1-yl)quinolin-4-amine] |  |  | confirmed |  |
| CN[C@@H]1C[C@H]2O[C@@](C)([C@@H]1OC)n1c3ccccc3c3c4c(c5c6ccccc6n2c5c31)C(=O)NC4 [staurosporine] |  |  |  | micromolar level |
| COCCOc1ccc(Nc2ccnc3cc(C)ccc23)cc1 | 1900 | 2460 |  |  |
| COCCOc1ccc(Nc2ccnc3cc(C4=CCN(C)CC4)ccc23)c(OC)c1 [Example 5, N-(2-methoxy-4-(2-methoxyethoxy)phenyl)-7-(1-methyl-1,2,3,6-tetrahydropyridin-4-yl)quinolin-4-amine] |  |  | confirmed |  |
| COCCOc1ccc(Nc2ccnc3cc(C4CCN(C)CC4)ccc23)c(OC)c1 [Example 11, N-(2-methoxy-4-(2-methoxyethoxy)phenyl)-7-(1-methylpiperidin-4-yl)quinolin-4-amine] |  |  | confirmed |  |
| COCCOc1ccc(Nc2ccnc3cc(C)ccc23)c(OC)c1 [Example 10, N-(2-methoxy-4-(2-methoxyethoxy)phenyl)-7-methylquinolin-4-amine] | 195 | 670 | confirmed |  |
| COCCOc1ccc(Nc2ccnc3cc(-c4cnn(C)c4)ccc23)c(OC)c1 [Example 4, N-(2-methoxy-4-(2-methoxyethoxy)phenyl)-7-(1-methyl-1H-pyrazol-4-yl)quinolin-4-amine] |  |  | confirmed |  |
| COCCOc1ccc(Nc2ccnc3cc(OC)ccc23)c(OC)c1 [Example 3, 7-methoxy-N-(2-methoxy-4-(2-methoxyethoxy)phenyl)quinolin-4-amine] |  |  | confirmed |  |
| COCCOc1ccc(Nc2ccnc3cc(C(F)F)ccc23)cc1 | 1740 | 2310 |  |  |
